65 molecules from US20150290200A1, “INTRACELLULAR KINASE INHIBITORS” (Pharmacyclics Inc., priority 2006, published 2015) can be followed below.

Test [1] concerns the target T1, ITK kinase domain (Homo sapiens, UniProt Q08881).
T1 construct: N-terminally His-tagged ITK kinase domain (amino acids 352-617); His (N); made in house
T1 sequence (Q08881 352-617): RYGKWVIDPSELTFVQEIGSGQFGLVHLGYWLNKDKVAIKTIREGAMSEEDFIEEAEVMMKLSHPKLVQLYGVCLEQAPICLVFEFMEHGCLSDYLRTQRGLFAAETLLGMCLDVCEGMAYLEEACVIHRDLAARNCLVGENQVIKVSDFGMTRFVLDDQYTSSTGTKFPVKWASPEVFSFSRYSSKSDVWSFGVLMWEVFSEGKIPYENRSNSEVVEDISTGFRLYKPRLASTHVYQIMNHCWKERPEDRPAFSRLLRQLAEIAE
Description: In vitro kinase assay (HITHUNTER enzyme fragment complementation), ITK. Format: biochemical. On the procedure: Compounds were screened using the HITHUNTER™ enzyme fragment complementation method (Discoverx). Briefly, a recombinantly produced, N-terminally His-tagged ITK kinase domain (amino acids 352-617) was incubated with various concentrations of individual compounds. ATP and substrate were added, and the kinase reaction was allowed to proceed for 2-16 hours. Commercially available detection reagents were added and allowed to react for 2-4 hours. The reaction was evaluated by luminescence. Initial results were confirmed using full-length recombinant ITK protein.
In order to confirm the mechanism by which compounds depicted herein interact with the kinase domain of Tec and EGFR kinases, we created a point mutant of the ITK kinase domain, whereby the key amino acid, namely C442 was mutated to alanine. The protein was expressed in a commercial baculovirus expression system using the manufacturer's general protocol (Invitrogen, pBlueBac). Protein was expressed and purified using standard techniques. […] While the activity of WT-ITK was inhibited by compounds depicted in this application, the same compounds had no activity towards the C442A mutant kinase domain.

Test [2] addresses T2, BTK kinase domain (Homo sapiens, UniProt Q06187).
T2 construct: The kinase domains of BTK, LCK and ERK were expressed as recombinant purified proteins; made in house
Kind of test: In vitro kinase assay (HITHUNTER), BTK. It is filed as biochemical. The source says: Similarly, commercially available reagents such as HITHUNTER™ were used to evaluate the effect of compounds on the activity of additional kinases. The kinase domains of BTK, LCK and ERK were expressed as recombinant purified proteins were used for these studies.

Setting [3] is: Table 3, Compound, read-out: IC50 ITK.

Where two headings read alike, the source gives them in different places.

T2 sequence (Q06187 402-655 limits assumed): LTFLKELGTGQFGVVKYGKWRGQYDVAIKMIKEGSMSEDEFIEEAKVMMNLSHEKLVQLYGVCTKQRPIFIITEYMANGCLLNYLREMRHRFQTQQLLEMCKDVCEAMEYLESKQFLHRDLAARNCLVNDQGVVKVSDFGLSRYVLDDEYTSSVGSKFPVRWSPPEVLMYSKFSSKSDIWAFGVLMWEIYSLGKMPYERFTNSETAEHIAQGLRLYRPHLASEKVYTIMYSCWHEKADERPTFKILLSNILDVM

Consider `CC(C)CN(C)CCC(=O)c1ccc2ccccc2c1`, for which the IC50 in test [1] (Table 1, ITK, read-out: IC50) was determined as 13.6 nM.
Consider `O=C(CCN1CCN(c2ccccc2)CC1)c1ccc2ccccc2c1`, for which the half-inhibitory concentration (IC50) in test [1] (Table 1, ITK, read-out: IC50) turned out to be 4.26 nM.
With `CC(C)C1CCN(CCC(=O)c2ccc3ccccc3c2)CC1`, the IC50 in test [1] (Table 1, ITK, read-out: IC50) is 13.3 nM.
`CC(C)C1CCN(CCC(=O)c2ccc3ccccc3c2)C1` (centres unmarked): the IC50 in test [1] (Table 1, ITK, read-out: IC50) was determined as 6.86 nM.
Turning to `COc1ccc(C(=O)CCN2CCOCC2)cc1[N+](=O)[O-]`, the concentration for half-maximal inhibition (IC50) in test [1] (Table 2, read-out: IC50 ITK) is 20 nM.
For the molecule `CN(C)C1CCN(CCC(=O)C2=CC3NC(=O)COC3C=C2)C1` (centres unmarked), the IC50 in test [1] (setting [3]) amounted to 72 nM; in test [2] (Table 3, Compound), 1890 nM.
For the molecule `CN(CCC(=O)c1ccc2c(c1)NC(=O)CO2)Cc1ccc(F)cc1`, the IC50 in test [1] (setting [3]) was found to be 10 nM; in test [2] (Table 3, Compound), 300 nM.
Turning to `CN(C)CCN1CCN(CCC(=O)c2ccc3c(c2)NC(=O)CO3)CC1`, the IC50 in test [1] (setting [3]) amounted to 18 nM; in test [2] (Table 3, Compound) it was 481 nM.
Regarding `CN(C)C1CCN(CCC(=O)c2ccc3c(c2)NC(=O)CO3)CC1`, the IC50 worked out at 13 nM in test [1] (setting [3]) and 150 nM in test [2] (Table 3, Compound).
With `CC(C)N(CCC(=O)c1ccc2c(c1)NC(=O)CO2)C(C)C`, the IC50 was 23 nM in test [1] (setting [3]) and 544 nM in test [2] (Table 3, Compound).
Take `CN(CCC(=O)c1ccc2ccccc2c1)Cc1ccc(C(F)(F)F)cc1`: the IC50 in test [1] (Table 4, read-out: IC50 ITK) is 56.7 nM.
Same read-out and setting: as for `O=C(CCN1CCN(Cc2ccccc2)CC1)c1ccc2ccccc2c1`, the figure is 30.3 nM.
The same measure, in the same setting: for `O=C(CCN1CCC(c2ccccc2)C1)c1ccc2ccccc2c1` (centres unmarked) the value was 22.8 nM.
Turning to `O=C(CCN1CCOCC1)c1ccc2ccccc2n1`, the half-maximal inhibitory concentration (IC50) turned out to be 48 nM in test [1] (Table 4, read-out: IC50 ITK) and 5000 nM in test [2] (Table 4).
Turning to `O=C(CCN1CCOCC1)c1cnc2ccccc2c1`, the IC50 in test [1] (Table 4, read-out: IC50 ITK) worked out at 189 nM; in test [2] (Table 4), 100 nM.
Consider `O=C(CCN1CCOCC1)c1c[nH]c2ccccc12`, for which the IC50 in test [1] (Table 4, read-out: IC50 ITK) was 176 nM; in test [2] (Table 4), 8170 nM.
The like results for `O=C(CCN1CCOCC1)c1n[nH]c2ccccc12` were, in that order, 49 nM and 296 nM.
For `O=C(CCN1CCOCC1)c1csc2ccccc12`, the IC50 in test [1] (Table 4, read-out: IC50 ITK) is 134 nM; in test [2] (Table 4), 611 nM.
The like results for `O=C(CCN1CCOCC1)c1ccc2sccc2c1` were, in that order, 60 nM and 334 nM.
Turning to `O=C(CCN1CCOCC1)c1cc2ccccc2o1`, in test [1] (Table 4, read-out: IC50 ITK), the half-inhibitory concentration (IC50) came out at 56400 nM. In addition, in test [2] (Table 4), the “IC50 BTK” value is given as “no IC50”.
Consider `O=C(CCN1CCOCC1)c1cc2ccccc2s1`, for which the IC50 in test [1] (Table 4, read-out: IC50 ITK) was determined as 10 nM; in test [2] (Table 4), 17 nM.
For `O=C(CCN1CCOCC1)c1ccc2cc(O)ccc2c1` the same measures were 30 nM and 6 nM.
For the molecule `O=C(O)c1ccc2cc(C(=O)CCN3CCOCC3)ccc2c1`, the IC50 stood at 3340 nM in test [1] (Table 4, read-out: IC50 ITK) and 2360 nM in test [2] (Table 4).
For `O=CNc1ccc2cc(C(=O)CCN3CCOCC3)ccc2c1` the same measures were 42 nM and 2 nM.
Regarding `O=C(CCN1CCCCC1)c1ccc2ccccc2c1`, in test [1] (Table 5, read-out: IC50 ITK), the IC50 amounted to 537 nM.
For the molecule `CC1CCCN1CCC(=O)c1ccc2ccccc2c1` (centres unmarked), the IC50 in test [1] (Table 5, read-out: IC50 ITK) turned out to be 852 nM.
On the same count and under the same terms, as for `CN(C)CCC(=O)c1ccc2ccccc2c1`, the figure is 161 nM; as for `CC1CCN(CCC(=O)c2ccc3ccccc3c2)CC1`, 310 nM; as for `O=C(CCN1CCC(c2ccccn2)C1)c1ccc2ccccc2c1` (centres unmarked), 35.9 nM.
Consider `CC(C)N(C)CCC(=O)c1ccc2ccccc2c1`, for which the IC50 in test [1] (Table 5, read-out: IC50 ITK) was 16.3 nM.
For the molecule `O=C(CCN1CCNCC1)c1ccc2ccccc2c1`, the IC50 amounted to 117 nM in test [1] (Table 5, read-out: IC50 ITK) and 410 nM in test [2] (Table 5).
As for `NC(=O)N1CCN(CCC(=O)c2ccc3ccccc3c2)CC1`, the IC50 in test [1] (Table 5, read-out: IC50 ITK) came to 23 nM; in test [2] (Table 5), 153 nM.
The like results for `CN(C)C(=O)N1CCN(CCC(=O)c2ccc3ccccc3c2)CC1` were, in that order, 56 nM and 452 nM.
Regarding `O=C(CCN1CCN(C(=O)N2CCOCC2)CC1)c1ccc2ccccc2c1`, the IC50 in test [1] (Table 5, read-out: IC50 ITK) stood at 60 nM; in test [2] (Table 5), 242 nM.
On to `CC(=O)N1CCN(CCC(=O)c2ccc3ccccc3c2)CC1`, for which the IC50 in test [1] (Table 5, read-out: IC50 ITK) turned out to be 66 nM; in test [2] (Table 5) it was 89 nM.
With `CC(C)(C)C(=O)N1CCN(CCC(=O)c2ccc3ccccc3c2)CC1`, the IC50 in test [1] (Table 5, read-out: IC50 ITK) turned out to be 64 nM; in test [2] (Table 5), 360 nM.
`O=C(CCN1CCN(C(=O)c2ccncc2)CC1)c1ccc2ccccc2c1`: the IC50 was 54 nM in test [1] (Table 5, read-out: IC50 ITK) and 18 nM in test [2] (Table 5).
With `O=C(CCN1CCCCNC1)c1ccc2ccccc2c1`, the 50% inhibitory concentration (IC50) was 87 nM in test [1] (Table 5, read-out: IC50 ITK) and 51 nM in test [2] (Table 5).
For `O=C(CCN1CCSCC1)c1ccc2ccccc2c1` the same measures were 31 nM and 71 nM.
For `O=C(CCN1CCS(=O)(=O)CC1)c1ccc2ccccc2c1` the same measures were 66 nM and 117 nM.
As to `O=C(CCN1CCC[C@@H]1CO)c1ccc2ccccc2c1`, the IC50 is 49 nM in test [1] (Table 5, read-out: IC50 ITK) and 123 nM in test [2] (Table 5).
As to `OC(CCN1CCOCC1)c1ccc2ccccc2c1` (centres unmarked), the “IC50 ITK” value in test [1] (Table 7, elimination mechanism) is on record as “no IC50”.
As to `CC(C)(CN1CCCCC1)C(=O)c1ccc2ccccc2c1`, in test [1] (Table 7, elimination mechanism), the “IC50 ITK” value was “no IC50”.
Consider `CC(C)N(CCC(=O)c1ccc2ccccc2c1)C(C)C` [drawing 104], for which, in test [1] (Table 1, ITK, read-out: IC50), the IC50 came to 18.1 nM.
In the case of `CN(CCC(=O)c1ccc2ccccc2c1)Cc1ccccc1` [drawing 107], the half-inhibitory concentration (IC50) in test [1] (Table 1, ITK, read-out: IC50) is 25.8 nM.
On the same count and under the same terms, as for `CN1CCN(CCC(=O)c2ccc3ccccc3c2)CC1` [drawing 110], the figure is 50.4 nM; as for `O=C(CCN1CCN(CC2CCCCC2)CC1)c1ccc2ccccc2c1` [drawing 111], 11.4 nM.
The same measure, in the same setting: as for `O=C(CCN1Cc2ccccc2C1)c1ccc2ccccc2c1` [drawing 114], the figure is 28.6 nM; as for `O=C(CCN1CCc2ccccc2C1)c1ccc2ccccc2c1` [drawing 115], 18.3 nM.
Same read-out and setting: as for `COc1cc2c(cc1OC)CN(CCC(=O)c1ccc3ccccc3c1)CC2` [drawing 116], the figure is 0.85 nM; as for `O=C(CCN1CCOCC1)c1ccc2ccccc2c1` [drawing 117], 71.9 nM.
Regarding `CN(CCC(=O)c1ccc2ccccc2c1)Cc1ccco1` [drawing 118], the IC50 in test [1] (Table 1, ITK, read-out: IC50) was found to be 19.6 nM.
On to `O=C(CCN1CCC(Cc2ccccc2)CC1)c1ccc2ccccc2c1` [drawing 182], for which the half-inhibitory concentration (IC50) in test [1] (Table 4, read-out: IC50 ITK) stood at 92.8 nM.
The same measure, in the same setting: as for `O=C(CCN1CCCC1)c1ccc2ccccc2c1` [drawing 184], the figure is 74.9 nM.
`CN(CCC(=O)c1ccc2ccccc2c1)Cc1ccccc1` [drawing 203]: the IC50 in test [1] (Table 5, read-out: IC50 ITK) stood at 16.9 nM.
In the case of `O=C(CCN1CCN(c2ccccn2)CC1)c1ccc2ccccc2c1` [drawing 205], the IC50 in test [1] (Table 5, read-out: IC50 ITK) was 14.8 nM.
Still for that read-out and setting: as for `CN1CCN(CCC(=O)c2ccc3ccccc3c2)CC1` [drawing 208], the figure is 30.9 nM; as for `O=C(CCN1CCc2ccccc2C1)c1ccc2ccccc2c1` [drawing 209], 21.2 nM; as for `O=C(CCN1CCN(c2ccccn2)CC1)c1ccc2ccccc2c1` [drawing 211], 24.2 nM.
The same measure, in the same setting: as for `CN(CCC(=O)c1ccc2ccccc2c1)Cc1ccco1` [drawing 215], the figure is 18.7 nM; as for `CN(C)C1CCN(CCC(=O)c2ccc3ccccc3c2)CC1` [drawing 216], 9.5 nM; as for `O=C(CCN1Cc2ccccc2C1)c1ccc2ccccc2c1` [drawing 217], 16.2 nM.
Turning to `O=C(CCN1CCN(CC2CCCCC2)CC1)c1ccc2ccccc2c1` [drawing 219], in test [1] (Table 5, read-out: IC50 ITK), the half-maximal inhibitory concentration (IC50) was 14.7 nM.
Still for that read-out and setting: for `CC(C)N(CCC(=O)c1ccc2ccccc2c1)C(C)C` [drawing 220] the value was 9.2 nM.
Take `O=C(CCN1CCOCC1)c1ccc2ccccc2c1` [drawing 254]: the IC50 in test [1] (Table 7, elimination mechanism, read-out: IC50 ITK) was 44.6 nM.
